# From patent US11498899B2, “Nitrone herbicides” (FMC Corporation, priority 2016, dated 2022)
# Assays:
# [1] = tested on: pigweed (Amaranthus retroflexus); test: Test A preemergence, visual injury rating 0-100; format: in vivo
# [2] = tested on: kochia (Kochia scoparia); test: Test A preemergence, visual injury rating 0-100; format: in vivo
# [3] = tested on: foxtail, giant (giant foxtail, Setaria faberii); test: Test A preemergence, visual injury rating 0-100; format: in vivo
# [4] = tested on: ragweed (common ragweed, Ambrosia elatior); test: Test A preemergence, visual injury rating 0-100; format: in vivo
# [5] = tested on: ryegrass, Italian (Italian ryegrass, Lolium multiflorum); test: Test A preemergence, visual injury rating 0-100; format: in vivo; details: 500 g ai/ha
# [6] = tested on: rice (Oryza sativa); test: Test B flooded paddy test, visual rating 0-100 (0 no effect, 100 complete control); details: Flood, 250 g ai/ha, applied to paddy water, rated after 13 to 15 days
# [7] = tested on: barnyardgrass (Echinochloa crus-galli); test: Test B flooded paddy test, visual rating 0-100; details: Flood, 250 g ai/ha, applied to paddy water, rated after 13 to 15 days
# [8] = tested on: ducksalad (Heteranthera limosa); test: Test B flooded paddy test, visual rating 0-100; details: Flood, 250 g ai/ha, applied to paddy water, rated after 13 to 15 days
# [9] = tested on: barnyardgrass (Echinochloa crus-galli); test: Test A preemergence, visual injury rating 0-100 (0 no effect, 100 complete control); format: in vivo
# [10] = tested on: pigweed (Amaranthus retroflexus); test: Test A postemergence, visual injury rating 0-100; format: in vivo; details: 0 to 100 scale
# [11] = tested on: barnyardgrass (Echinochloa crus-galli); test: Test A postemergence, visual injury rating 0-100; format: in vivo; details: 0 to 100 scale
# [12] = tested on: kochia (Kochia scoparia); test: Test A postemergence, visual injury rating 0-100; format: in vivo; details: 0 to 100 scale
# [13] = tested on: wheat (Triticum aestivum); test: Test A postemergence, visual injury rating 0-100; format: in vivo; details: 0 to 100 scale
# [14] = tested on: galium (catchweed bedstraw, Galium aparine); test: Test A postemergence, visual injury rating 0-100; format: in vivo; details: 0 to 100 scale
# [15] = tested on: corn (Zea mays); test: Test A postemergence, visual injury rating 0-100; format: in vivo; details: 0 to 100 scale
# [16] = tested on: foxtail, giant (giant foxtail, Setaria faberii); test: Test A postemergence, visual injury rating 0-100; format: in vivo; details: 0 to 100 scale
# [17] = tested on: ragweed (common ragweed, Ambrosia elatior); test: Test A postemergence, visual injury rating 0-100; format: in vivo; details: 0 to 100 scale
# [18] = tested on: ryegrass, Italian (Italian ryegrass, Lolium multiflorum); test: Test A postemergence, visual injury rating 0-100; format: in vivo; details: 0 to 100 scale
# [19] = tested on: blackgrass (Alopecurus myosuroides); test: Test A postemergence, visual injury rating 0-100; format: in vivo; details: 0 to 100 scale
Structure (SMILES),Pigweed plant response rating (0 to 100 scale) ([1]; 125 g ai/ha),Pigweed plant response rating (0 to 100 scale) ([1]; 500 g ai/ha),Kochia plant response rating (0 to 100 scale) ([2]; 125 g ai/ha),Kochia plant response rating (0 to 100 scale) ([2]; 500 g ai/ha),"Foxtail, Giant plant response rating (0 to 100 scale) ([3]; 125 g ai/ha)","Foxtail, Giant plant response rating (0 to 100 scale) ([3]; 500 g ai/ha)",Ragweed plant response rating (0 to 100 scale) ([4]; 125 g ai/ha),Ragweed plant response rating (0 to 100 scale) ([4]; 500 g ai/ha),"Ryegrass, Italian plant response rating (0 to 100 scale) [5]",Rice plant response rating (0 to 100 scale) [6],Barnyardgrass plant response rating (0 to 100 scale) [7],Ducksalad plant response rating (0 to 100 scale) [8],Barnyardgrass plant response rating (0 to 100 scale) ([9]; 125 g ai/ha),Barnyardgrass plant response rating (0 to 100 scale) ([9]; 500 g ai/ha),Pigweed plant response rating ([10]; 125 g ai/ha),Pigweed plant response rating ([10]; 500 g ai/ha),Barnyardgrass plant response rating ([11]; 125 g ai/ha),Barnyardgrass plant response rating ([11]; 500 g ai/ha),Kochia plant response rating ([12]; 125 g ai/ha),Kochia plant response rating ([12]; 500 g ai/ha),other results
CC1=[N+]([O-])C(C(=O)Nc2cccc(F)c2F)C(c2cccc(C(F)(F)F)c2C)C1 (racemic) [Compound 106],0,60,0,70,90,100,0,40,90,0,60,70,90,90,0,20,70,90,0,30,"Wheat plant response rating ([13]; 125 g ai/ha): 40; Wheat plant response rating ([13]; 500 g ai/ha): 70; Galium plant response rating ([14]; 125 g ai/ha): 40; Galium plant response rating ([14]; 500 g ai/ha): 70; Corn plant response rating ([15]; 125 g ai/ha): 60; Corn plant response rating ([15]; 500 g ai/ha): 90; Foxtail, Giant plant response rating ([16]; 125 g ai/ha): 80; Foxtail, Giant plant response rating ([16]; 500 g ai/ha): 90; Ragweed plant response rating ([17]; 125 g ai/ha): 30; Ragweed plant response rating ([17]; 500 g ai/ha): 70; Ryegrass, Italian plant response rating ([18]; 125 g ai/ha): 70; Ryegrass, Italian plant response rating ([18]; 500 g ai/ha): 70; Blackgrass plant response rating ([19]; 125 g ai/ha): 80; Blackgrass plant response rating ([19]; 500 g ai/ha): 70"
CC1=[N+]([O-])C(C(=O)Nc2cccc(F)c2F)C(c2ccc(Cl)c(F)c2)C1 (racemic) [Compound 107],0,80,0,90,90,90,0,50,80,0,40,70,90,90,0,30,70,90,20,20,"Wheat plant response rating ([13]; 125 g ai/ha): 10; Wheat plant response rating ([13]; 500 g ai/ha): 60; Galium plant response rating ([14]; 125 g ai/ha): 70; Galium plant response rating ([14]; 500 g ai/ha): 70; Corn plant response rating ([15]; 125 g ai/ha): 30; Corn plant response rating ([15]; 500 g ai/ha): 80; Foxtail, Giant plant response rating ([16]; 125 g ai/ha): 60; Foxtail, Giant plant response rating ([16]; 500 g ai/ha): 90; Ragweed plant response rating ([17]; 125 g ai/ha): 30; Ragweed plant response rating ([17]; 500 g ai/ha): 60; Ryegrass, Italian plant response rating ([18]; 125 g ai/ha): 10; Ryegrass, Italian plant response rating ([18]; 500 g ai/ha): 70; Blackgrass plant response rating ([19]; 125 g ai/ha): 70; Blackgrass plant response rating ([19]; 500 g ai/ha): 70"
